Our source for the inhibition % and ED50 values is patent publication US20030114449A1, “SACCHARIN DERIVATIVES AS ORALLY ACTIVE ELASTASE INHIBITORS” (priority 1999, published 2003).

This test addresses T1, human leukocyte elastase enzyme (Homo sapiens, UniProt P08246).
T1 sequence (P08246 30-267): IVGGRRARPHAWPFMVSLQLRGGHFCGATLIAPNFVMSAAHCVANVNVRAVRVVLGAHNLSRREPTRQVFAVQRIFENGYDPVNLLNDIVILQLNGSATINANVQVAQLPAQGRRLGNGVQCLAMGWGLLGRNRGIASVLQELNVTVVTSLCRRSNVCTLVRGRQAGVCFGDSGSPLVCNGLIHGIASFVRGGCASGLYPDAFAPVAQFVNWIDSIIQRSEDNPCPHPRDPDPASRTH
Description: Inhibition of acute lung damaging effect caused by human leukocyte elastase enzyme, determined on mice (BAL haemoglobin). To be noted: for inhibition %: male NMRI mice, p.o. dose 10 mg/bw kg, 60 minutes before intratracheal human leukocyte elastase, haemorrhagic response (BAL haemoglobin, 540 nm) 3 hours later; for ED50: mouse, po, mice, per os, elastase-induced lung haemorrhage. The test is classed as in vivo, mouse. As to the method:
Inhibition of Acut Lung Damaging Effect Caused by Human Leukocyte Elastase Enzyme, Determined on Mice.
Description of the method:
Male NMRI mice approximately 6-8 week old of age, weighing between 22-26 grams were dosed per os with the 0.1% (w/v) solution in carboxymethyl cellulose of the investigated compounds of the general formula (I) or of the known comparatory compound, respectively. 60 minutes later the mice were given intratracheally 12.5 international unit of human leukocyte elastase enzyme dissolved in 25.0 μL sterile physiological sodium chloride solution.
3 hours later the animals were euthanized with an overdose of urethane and into the lung 1 ml of physiological salt solution was introduced, for washing.
The trachea was exposed at wound by opening suture clips and a small incision made for insertion of a polyethylene cannula secured in place with surgical thread. An 18 gauge×1½ inch needle, attached to an 1.00 mL syringe was inserted into the cannula, and 0.5 mL of air was withdrawn from the airways. One milliliter was then instilled into the airways. After it the chest was briefly and gently massaged. The syringe was removed from the cannula and the bronchoalveolar lavage (BAL) fluid allowed to drain into a 10.0 mL graduate to determine the total volume of lavage fluid retrievable from lungs while the animal was in a supine position. The instillation procedure mentioned above was repeated three times. Triton X100 was then added to the collected bronchoalveolar lavage fluid (final concentration, 0.2% v/v) to ensure cell disruption and the haemoglobin content was determined spectrophotometrically at 540 nm.
Effectiveness of the elastase enzyme inhibitory compound was determined on the basis of the haemorrhagic responses, according to the following formula:
% inhibition=[(VE−DE)/(VE−VS)]×100,
VE=mean absorbance of BAL fluids from the group pretreated orally only with vehicle but intratracheally with elastase;
DE=absorbance of each BAL fluid from animals pretreated orally with potential inhibitor compound, intratracheally with elastase;
VS=mean absorbance of BAL fluids from group pretreated orally with vehicle and intratracheally with sterile physiological salt solution.
For comparative compound the structurally most related known compound described in patent application EP-0626378A1 example 9E was used. Its synthesis is described above in the reference example.

Turning to `COc1cc(C(C)C)c2c(c1)S(=O)(=O)N(COc1cc(=O)n3cccc(OCCN4CCCC4)c3n1)C2=O` [EP-626378, Example 9E, 2-(9-(2-pyrrolidino-ethoxy)-4-oxo-4H-pyrido[1,2-a]pyrimidin-2-yl-oxymethyl)-4-isopropyl-6-methoxy-1,2-benzisothiazol-3(2H)one-1,1-dioxide, reference compound], the inhibition % is reported as 15% and the ED50 is 23 mg/kg. For `COc1cc(C(C)C)c2c(c1)S(=O)(=O)N(COc1cc(=O)n3cccc(OCCN4CCCCC4)c3n1)C2=O` [Example 3, 2(-9-(2-piperidino-ethoxy)-4-oxo-4H-pyrido[1,2-a]pyrimidin-2-yl-oxymethyl)-4-isopropyl-6-methoxy-1,2-benzisothiazol-3(2H)-one-1,1-dioxide], in that order: 80% and 2.6 mg/kg. In turn, `COc1cc(C(C)C)c2c(c1)S(=O)(=O)N(COc1cc(=O)n3cccc(OCCN4CCCCC4)c3n1)C2=O.O=C(O)c1ccccc1` [Example 7, 2-(9-(2-piperidino-ethoxy)-4-oxo-4H-pyrido[1,2-a]pyrimidin-2-yl-oxymethyl)-4-isopropyl-6-methoxy-1,2-benzisothiazol-3(2H)-one-1,1-dioxide benzoate salt] had an inhibition % of 56%. `COc1cc(C(C)C)c2c(c1)S(=O)(=O)N(COc1cc(=O)n3cccc(OCCN4CCCCC4)c3n1)C2=O.O=C(O)CC(O)(CC(=O)O)C(=O)O` [Example 8, 2-(9-(2-piperidino-ethoxy)-4-oxo-4H-pyrido[1,2-a]pyrimidin-2-yl-oxymethyl)-4-isopropyl-6-methoxy-1,2-benzisothiazol-3(2H)-one-1,1-dioxide monocitrate salt] had an inhibition % of 70%.

By ED50 is commonly meant the dose that gives a 50% effect, or the effect in half of the subjects. Read a low ED50 as an effect at a small dose.
